Laboratory results as given in patent US10881650B2, “Pharmaceutical compositions” (priority 2007, dated 2021).
Entries after “also recorded” stand apart in the source; their conditions may differ.

Key:
endometrium [1] = settings: cited from earlier work
[2] = one week daily intravaginal, mass spectrometry (Labrie, Cusan et al. 2008); cited from earlier work
[3] = test system: postmenopausal women with vaginal atrophy; settings: cited from earlier work
[4] = Serum levels of DHEA and eleven metabolites after daily intravaginal DHEA suppositories (clinical trial ERC-213); type: in vivo, 40-75 year-old postmenopausal women; settings: 0.5% DHEA intravaginal
Source text: The primary objective of that study was the evaluation of the systemic bioavailability of DHEA and its metabolites following daily intravaginal application of suppositories at four different DHEA concentrations. This study was a randomized, placebo-controlled and double-blind trial of 10-subjects per arm.

[5] = Bioavailability and metabolism of oral and percutaneous DHEA: serum steroids on 1st and 14th day
Source text: Thirty-six healthy 60-70-year-old postmenopausal women participated in the study after IRB approval and having given their written informed consent. Body weight was within ±20% of normal body weight according to Metropolitan Life Tables.
This study was a randomized open-label trial of 12 subjects per arm. After written informed consent was obtained and women were found eligible, each subject was randomized to receive DHEA by cream, gel or orally. Daily, before breakfast, for 14 days, subjects received, at the research clinic, either 4 g of 10% DHEA gel or 4 g of 10% DHEA cream applied on a total 30 cm×30 cm area of the thighs or two 50 mg capsules of DHEA orally before breakfast.
Blood sampling was performed at 08:00-09:00 h at screening and before application of DHEA, on the first day of dosing, as well as on days 2, 4, 7, 10 and 14. On the 1st and 14th days, blood samples were obtained at 0.5 h, 1 h, 1.5 h, 2 h, 3 h, 4 h, 5 h, 6 h, 7 h, 8 h, 12 h and 24 h following DHEA administration.
DHEA, DHEA-S, androst-5-ene-3β,17β-diol (5-diol), testosterone, androstenedione (4-dione), 17β-estradiol (E2), estrone (E1), estrone sulfate (E1-S), androsterone glucuronide (ADT-G), and androstane-3*,17β-diol glucuronide (3α-diol-G) were measured by gas chromatography/mass spectrometry (DHEA, 5-diol, 4-dione, testosterone, E1 and E2) using electron impact or chemical ionization and by liquid chromatography/tandem mass spectrometry using turboionspray (DHEA-S, E1-S, ADT-G and 3α-diol-G) as described (Labrie, Bélanger et al., 2006; Labrie, Bélanger, et al, 2007b and Swanson et al. 2007).
On days 1 and 14, the area under the curve of the serum concentration of each steroid was measured between 0 h and 24 h (AUC0-24 h). The areas under the curves were calculated by a linear trapezoidal method (model-independent). The relative bioavailability of the DHEA gel, DHEA cream and DHEA capsules was based on the mean difference in the log-transformed AUC values. All calculations were performed with the SAS software (SAS Institute, Cary, N.C., USA).

endometrium [6] = assay: Endometrial biopsy histology (ERC-210); type: in vivo, postmenopausal women; settings: 3 months of intravaginal administration
Description: Endometrial biopsy was performed at screening and at month 3 at end of study. All biopsies were examined by the same pathologist at the central laboratory (Dr. Robert Dubé, Department of cytology-pathology, Enfant-Jésus Hospital, Quebec City, Canada).

[7] = test system: postmenopausal women with vaginal atrophy; assay: Vaginal examination: secretions, color, epithelial integrity, surface thickness (ERC-210); type: in vivo; settings: 2, 4, 8 and 12 weeks
Source text: At the same time intervals of 2, 4, 8 and 12 weeks, the gynecologist or physician in charge of the study at each site performed a vaginal exam to evaluate the degree of severity (none, mild, moderate or severe, analyzed using values of 0, 1, 2 and 3, respectively) for the main signs of vaginal atrophy, namely vaginal secretions, vaginal color, vaginal epithelial integrity and vaginal epithelial surface thickness. […] In fact, the beneficial effects observed by the gynecologist and or physician are almost superimposable to those self-reported by women on their most bothersome symptoms.
Vaginal examination was performed at screening and then at day 1 and at 2, 4, 8 and 12 weeks. Vaginal secretions, vaginal color, vaginal epithelial integrity and vaginal epithelial surface thickness were evaluated according to the following degrees of severity: none, mild, moderate or severe.

[8] = cited from earlier work
[9] = 24 h after 14th daily administration, oral or percutaneous
[10] = daily oral 50 mg (Arlt et al. 2001)

For `CCCCCCCCCCC(=O)O[C@H]1CC[C@H]2[C@@H]3CCC4=CC(=O)CC[C@]4(C)[C@H]3CC[C@]12C` [testosterone undecanoate], which “Effect on the endometrium” value (endometrium [1]; 40 mg every second day (Zang 2007)) is on record?
Its value is “no effect on the endometrium”.

For `CCCCC(=O)O[C@H]1CC[C@H]2[C@@H]3CCc4cc(O)ccc4[C@H]3CC[C@]12C` [estradiol valerate], which “Increase of Ki labeling” value (endometrium [1]; 2 mg/day, 3 months (Zang 2007)) is on record?
The value was 50%.

Which results are given for `C[C@]12CC[C@@H]3c4ccc(O)cc4CC[C@H]3[C@@H]1CC[C@@H]2O` [E2, 17β-estradiol]?
Increase in serum E2 [2]: 5 fold; Cases with persisting dyspareunia ([3]; 25 μg intravaginally, 12 months (Simunic 2003)): 12.4%; Patients having a pH less than 5.0 ([3]; 12 weeks intravaginal 25 μg (Bachmann 2008)): 51%

For `C[C@]12CC[C@H]3[C@@H](CCC4=CC(=O)CC[C@@]43C)[C@@H]1CC[C@@H]2O` [testosterone], which “Proliferation with simultaneous administration of testosterone” value (endometrium [1]; with estradiol valerate 2 mg/day (Zang 2007)) is on record?
Its value is 28%.

What does the source list for `C[C@]12CC[C@H](O)CC1=CC[C@@H]1[C@@H]2CC[C@]2(C)C(=O)CC[C@@H]12` [DHEA, dehydroepiandrosterone]?
Serum levels of active estrogens (E1, E2, E1S) and androgens (testo, DHT) [4]: not significantly affected; also recorded: does not increase; Change in serum E1, E2 or testosterone AUC0-24 h ([5]; 14th day compared to predosing): no significant change; Change in serum DHEA-S ([5]; 14th day, application of DHEA on the skin): No significant change; Change in serum E1-S [5, 9]: did not change; Change in serum levels of E1 or E2 [5, 9]: no significant change; Change of serum ADT-G or 3α-diol-G ([5]; day 1, up to 24 h, 4 g of 10% DHEA on the skin): no significant change; Change in serum ADT-G ([5]; day 14, application of DHEA on the skin): No significant change; Change in serum 3α-diol-G ([5]; day 14, percutaneous administration): No significant change; Higher level of transformation of DHEA into ADT-G and 3α-diol-G, oral vs percutaneous ([5]; female, human, serum, po): approximately 10 fold; Transformation of DHEA into 4-dione, oral compared to percutaneous ([5]; female, human, serum, po): 2.70-3.76 times; Change in serum E1-S ([5]; first 24 h): did not change significantly; Effect on serum levels of E1 or E2 ([5]; first 24 h, oral or percutaneous route): no statistically significant effect; Effect on endometrial histology (endometrium [6]): no effect on endometrial histology; Signs of vaginal atrophy at vaginal exam [7]: highly statistically significant improvement of all four signs of vaginal atrophy; Serum DHEA and testosterone levels ([8]; 23 h after last administration, 25 mg oral 6 months): not changed significantly; Effect on serum testosterone or DHT [8, 10]: no significant effect; Increase of DHEA and ADT-G [8, 10]: 80-90%; Androgen metabolites as % of levels found in premenopausal women ([8]; daily oral 100 mg (Labrie, Bélanger et al. 2007)): 74%
